Columns and labels:
Assay in all cases: relative viability (nuclei count vs DMSO), 5 days (fraction); higher = more cells survive
[1] = compound: C1COCCN1C2=CC(=O)C3=C(O2)C(=CC=C3)C4=CC=CC5=C4SC6=CC=CC=C56
Method in brief: (§1)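 Viability here means nuclei in treated wells divided by nuclei in vehicle wells, reported as the median across plates. Only plates with control CV below 25% and at least one doubling passed. Lung cancer cell lines in 1536-well plates were exposed to five √10-spaced library-drug doses for 5 days and counted from 4× Hoechst images in MetaXpress.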

[2] = compound: CCN(CC)CCCCNc1ncc2cc(-c3cc(OC)cc(OC)c3)c(NC(=O)NC(C)(C)C)nc2n1
Method in brief: as §1

PRIMA-1MET = compound: COCC1(CO)C(=O)C2CCN1CC2 [PRIMA-1MET]
Method in brief: as §1

Zibotentan = compound: COc1nc(C)cnc1NS(=O)(=O)c1cccnc1-c1ccc(-c2nnco2)cc1 [Zibotentan]
Method in brief: as §1

[3] = compound: O=c1cc(-c2cccc3c2Sc2ccccc2S3)oc(N2CCOCC2)c1
Method in brief: as §1

Cell Line	relative viability ([1]; 0.01 µM)	relative viability ([1]; 0.03162 µM)	relative viability ([1]; 0.1 µM)	relative viability ([1]; 0.3162 µM)	relative viability ([1]; 1 µM)	relative viability ([2]; 0.01 µM)	relative viability ([2]; 0.03162 µM)	relative viability ([2]; 0.1 µM)	relative viability ([2]; 0.3162 µM)	relative viability ([2]; 1 µM)	relative viability (PRIMA-1MET; 0.2 µM)	relative viability (PRIMA-1MET; 0.6325 µM)	relative viability (PRIMA-1MET; 2 µM)	relative viability (PRIMA-1MET; 6.325 µM)	relative viability (PRIMA-1MET; 20 µM)	relative viability (Zibotentan; 0.08 µM)	relative viability (Zibotentan; 0.253 µM)	relative viability (Zibotentan; 0.8 µM)	relative viability (Zibotentan; 2.53 µM)	relative viability ([3]; 0.08 µM)	relative viability ([3]; 0.253 µM)	relative viability ([3]; 0.8 µM)	relative viability ([3]; 2.53 µM)	relative viability ([3]; 8 µM)
NCI-H1792	0.939	0.99	0.908	0.91	0.868	0.979	0.976	1.04	1.25	0.521	0.923	0.804	0.677	0.924	0.778	0.998	0.763	0.879	0.943	0.904	1.06	0.783	0.864	0.863
NCI-H1793	0.888	0.786	0.918	0.896	0.806	0.903	0.933	1.03	0.944	0.683	0.936	0.815		1.08	0.923	0.938	0.862	0.801	1.03	0.819	1.3	0.857	0.771	0.805
NCI-H1915	1.04	1.08	1.06	0.995	1.05	1.08	1.04	1.02	1.12	1.01	0.954	0.859	0.734	1	0.957	1.06	0.986	0.973	1.01	0.988	1.02	1.13	0.993	1.04
NCI-H1944	1	1.01	1.02	0.997	0.949	0.945	0.875	1.06	0.985	0.894	1.06	0.782	0.695	0.927	0.924	1.07	0.94	0.874	1.01	0.938	1.09	0.905	0.752	1.09
NCI-H1975	0.941	0.985	0.866	0.97	1.04	0.993	0.87	1.01	1.2	0.882	1.05	0.937	0.847	1.04	0.753	0.966	0.882	0.892	1.01	0.907	1.12	0.836	0.936	0.966
NCI-H1993	0.882	0.931	1.1	0.995	0.84	0.976	0.924	1.05	1.45	0.901	1	0.767	0.824	0.92	0.955	0.966	0.871	0.913	1.04	0.84	1.05	0.846	0.824	0.826
NCI-H2009	1.02	0.995	1.01	0.982	0.927	1.05	1.06	1.04	1.07	0.979	0.944	0.976	1.03	1.04	0.0681	1	0.968	1.07	1.06	0.987	1.03	0.962	0.93	0.869
NCI-H2023	1.05	1.1	1.04	0.973	0.908	0.914	1.09	1.16	1.05	0.854	1.3	0.888	0.955	0.97	0.826	1.06	0.794	0.899	1	0.923	1.12	0.972	0.865	0.888
NCI-H2085	0.986	0.961	0.97	0.974	0.966	1.03	0.987	0.99	1.02	0.972	1.06	1	0.791	1.05	0.524	1.01	0.954	1.05	1.03	0.95	1.1	1.05	0.96	0.892
NCI-H2087	1.11	1.08	1.01	0.977	1.05	1.02	0.966	1.16	1.03	0.942	0.687	0.883	0.912	1.17	0.773	0.934	1.02	1.16	1.05	0.958	1.15	1.12	0.835	1.13
NCI-H2126	0.972	1	1	1.01	0.98	1.02	0.992	1.06	1.07	0.983	1.03	0.978	0.901	1.03	0.978	1.01	0.965	0.913	1.05	0.986	1.03	0.862	0.932	1.03

— the supplement of paper PMC10307832
